Source: PubChem BioAssay AID192 (DTP/NCI, 2004)
Several values for one entry are separate records, joined by “and”; a condition that tells them apart may be missing. Equal entries are not always repeated. Toxic doses and inconclusive results are not listed.

Tested on: BDF1 mice, B16 melanoma ip, median survival T/C
Assay: NCI In Vivo Anticancer Drug Screen. Data for tumor model B16 Melanoma (intraperitoneal) in B6D2F1 (BDF1) mice
Details: endpoint: median survival time, higher = longer survival
Outline: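 Read-out: survival or tumor size, given as treated/control ratio. Controls received vehicle only; animals bore transplantable tumors.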

[1] = dose: 100.0 mg/kg/injection, schedule: Q01DX009 (ip), vehicle: Klucel (hydroxypropylcellulose) (HPC)
[2] = dose: 200.0 mg/kg/injection, schedule: Q01DX009 (ip), vehicle: Klucel (hydroxypropylcellulose) (HPC)
[3] = dose: 400.0 mg/kg/injection, schedule: Q01DX009 (ip), vehicle: Klucel (hydroxypropylcellulose) (HPC)
[4] = dose: 50.0 mg/kg/injection, schedule: Q01DX009 (ip), vehicle: Klucel (hydroxypropylcellulose) (HPC)
[5] = dose: 100.0 mg/kg/injection, schedule: Q01DX009 (ip), vehicle: saline with Tween-80
[6] = dose: 200.0 mg/kg/injection, schedule: Q01DX009 (ip), vehicle: saline with Tween-80
[7] = dose: 25.0 mg/kg/injection, schedule: Q01DX009 (ip), vehicle: saline with Tween-80
[8] = dose: 50.0 mg/kg/injection, schedule: Q01DX009 (ip), vehicle: saline with Tween-80

Structure (SMILES): COc1ccc2c(c1)C(OC)C1c3c(cc4c(c3-2)OCO4)CCN1C (centres undefined)
- T/C (dose: 1.0 mg/kg/injection, schedule: Q01DX009 (ip), vehicle: acid diluted with saline): 123 % of control
- T/C (dose: 2.0 mg/kg/injection, schedule: Q01DX009 (ip), vehicle: acid diluted with saline): 89 % of control

Structure (SMILES): Cc1c(N=CN(C)C)c(=O)n(-c2ccccc2)n1C
- T/C (dose: 97.0 mg/kg/injection, schedule: Q04DX003 (ip), vehicle: Klucel (hydroxypropylcellulose) (HPC)): 97 % of control
- T/C (dose: 187.5 mg/kg/injection, schedule: Q04DX003 (ip), vehicle: Klucel (hydroxypropylcellulose) (HPC)): 105 % of control
- T/C (dose: 375.0 mg/kg/injection, schedule: Q04DX003 (ip), vehicle: Klucel (hydroxypropylcellulose) (HPC)): 87 % of control

Structure (SMILES): Cc1ccc(NC(=O)Nc2cccc(Cl)c2)cc1C
- T/C [1]: 86 % of control
- T/C (dose: 100.0 mg/kg/injection, schedule: Q04DX003 (ip), vehicle: Klucel (hydroxypropylcellulose) (HPC)): 92 % of control
- T/C [2]: 86 % of control
- T/C (dose: 200.0 mg/kg/injection, schedule: Q04DX003 (ip), vehicle: Klucel (hydroxypropylcellulose) (HPC)): 92 % of control
- T/C [3]: 86 % of control
- T/C (dose: 400.0 mg/kg/injection, schedule: Q04DX003 (ip), vehicle: Klucel (hydroxypropylcellulose) (HPC)): 92 % of control

Structure (SMILES): COc1ccc(NC(=O)COc2ccccc2Br)cc1
- T/C [1]: 103 % of control
- T/C [2]: 100 % of control
- T/C [3]: 93 % of control

Structure (SMILES): O=c1cc(-c2ccccc2)nc(Nc2nc3ccc([N+](=O)[O-])cc3[nH]2)[nH]1
- T/C (dose: 25.0 mg/kg/injection, schedule: Q01DX009 (ip), vehicle: Klucel (hydroxypropylcellulose) (HPC)): 102 % of control
- T/C [4]: 90 % of control
- T/C [1]: 98 % of control and 103 % of control

Structure (SMILES): CC1OC(OCc2ccc(-c3ccccc3)cc2)CC(N)C1O (centres undefined)
- T/C (dose: 1.56 mg/kg/injection, schedule: Q01DX009 (ip), vehicle: water): 105 % of control
- T/C (dose: 3.13 mg/kg/injection, schedule: Q01DX009 (ip), vehicle: water): 95 % of control
- T/C (dose: 6.25 mg/kg/injection, schedule: Q01DX009 (ip), vehicle: water): 99 % of control
- T/C (dose: 12.5 mg/kg/injection, schedule: Q01DX009 (ip), vehicle: water): 104 % of control
- T/C (dose: 25.0 mg/kg/injection, schedule: Q01DX009 (ip), vehicle: water): 87 % of control

Structure (SMILES): CCCCCCCCC(=O)NCCOC
- T/C [4]: 104 % of control
- T/C [1]: 101 % of control
- T/C [2]: 101 % of control

Structure (SMILES): CC(=O)C(C)C(C)=O
- T/C [5]: 88 % of control
- T/C [6]: 90 % of control
- T/C (dose: 400.0 mg/kg/injection, schedule: Q01DX009 (ip), vehicle: saline with Tween-80): 91 % of control

Structure (SMILES): CCCCNC(=O)Nc1ccc(C(=O)OCC(C)C)cc1
- T/C [5]: 99 % of control
- T/C [6]: 96 % of control

Structure (SMILES): Cc1cc2c(c3oc(C4(C)OC4C4OC4C)cc(=O)c13)C(=O)c1c(O)c(C3CC(C)(N(C)C)C(O)C(C)O3)cc(C3CC(N(C)C)C(O)C(C)O3)c1C2=O (centres undefined)
- T/C (dose: 1.3 micrograms/kg/injection, schedule: Q01DX009 (ip), vehicle: clinical formulation): 108 % of control
- T/C (dose: 1.3 micrograms/kg/injection, schedule: Q01DX009 (ip), vehicle: saline): 97 % of control
- T/C (dose: 2.5 micrograms/kg/injection, schedule: Q01DX009 (ip), vehicle: clinical formulation): 117 % of control
- T/C (dose: 2.5 micrograms/kg/injection, schedule: Q01DX009 (ip), vehicle: saline): 108 % of control
- T/C (dose: 4.0 micrograms/kg/injection, schedule: Q01DX009 (ip), vehicle: Klucel (hydroxypropylcellulose) (HPC)): 119 % of control
- T/C (dose: 5.0 micrograms/kg/injection, schedule: Q01DX009 (ip), vehicle: Klucel (hydroxypropylcellulose) (HPC)): 122 % of control
- T/C (dose: 5.0 micrograms/kg/injection, schedule: Q01DX009 (ip), vehicle: saline): 107 % of control and 108 % of control
- T/C (dose: 8.0 micrograms/kg/injection, schedule: Q01DX009 (ip), vehicle: Klucel (hydroxypropylcellulose) (HPC)): 110 % of control
- T/C (dose: 10.0 micrograms/kg/injection, schedule: Q01DX009 (ip), vehicle: clinical formulation): 113 % of control
- T/C (dose: 10.0 micrograms/kg/injection, schedule: Q01DX009 (ip), vehicle: saline): 101 % of control and 123 % of control
- T/C (dose: 20.0 micrograms/kg/injection, schedule: Q01DX009 (ip), vehicle: saline): 124 % of control
- T/C (dose: 40.0 micrograms/kg/injection, schedule: Q01DX009 (ip), vehicle: saline): 114 % of control

Structure (SMILES): Cc1ccc([N+](=O)[O-])cc1NC(=O)Oc1ccc(Cl)cc1Cl
- T/C [7]: 93 % of control
- T/C [8]: 90 % of control

Structure (SMILES): O=COCCc1ccccc1
- T/C [1]: 113 % of control
- T/C [2]: 103 % of control
- T/C [3]: 96 % of control

Structure (SMILES): CO[C@H]1C[C@](C)(O)Cc2cc3c(c(O)c21)C(=O)c1c(O)cc2c(c1C3=O)O[C@@H]1O[C@@]2(C)[C@H](O)[C@@H](N(C)C)[C@@H]1O
- T/C (dose: 0.78 mg/kg/injection, schedule: Q01DX009 (ip), vehicle: other): 110 % of control
- T/C (dose: 1.56 mg/kg/injection, schedule: Q01DX009 (ip), vehicle: other): 118 % of control
- T/C (dose: 2.3 mg/kg/injection, schedule: Q01DX005 (ip), vehicle: other): 169 % of control
- T/C (dose: 2.3 mg/kg/injection, schedule: Q01DX005 (iv), vehicle: other): 97 % of control
- T/C (dose: 2.3 mg/kg/injection, schedule: Q01DX009 (ip), vehicle: other): 194 % of control
- T/C (dose: 3.12 mg/kg/injection, schedule: Q01DX009 (ip), vehicle: other): 159 % of control
- T/C (dose: 3.13 mg/kg/injection, schedule: Q01DX009 (ip), vehicle: other): 167 % of control
- T/C (dose: 4.5 mg/kg/injection, schedule: Q01DX005 (ip), vehicle: other): 200 % of control
- T/C (dose: 4.5 mg/kg/injection, schedule: Q01DX005 (iv), vehicle: other): 110 % of control
- T/C (dose: 4.5 mg/kg/injection, schedule: Q01DX005 (oral), vehicle: other): 95 % of control
- T/C (dose: 4.5 mg/kg/injection, schedule: Q01DX009 (ip), vehicle: other): 185 % of control
- T/C (dose: 4.5 mg/kg/injection, schedule: Q01DX009 (oral), vehicle: other): 99 % of control
- T/C (dose: 6.25 mg/kg/injection, schedule: Q01DX009 (ip), vehicle: other): 173 % of control and 177 % of control and 183 % of control
- T/C (dose: 9.0 mg/kg/injection, schedule: Q01DX005 (ip), vehicle: other): 213 % of control
- T/C (dose: 9.0 mg/kg/injection, schedule: Q01DX005 (iv), vehicle: other): 112 % of control
- T/C (dose: 9.0 mg/kg/injection, schedule: Q01DX005 (oral), vehicle: other): 97 % of control
- T/C (dose: 9.0 mg/kg/injection, schedule: Q01DX009 (ip), vehicle: other): 272 % of control
- T/C (dose: 9.0 mg/kg/injection, schedule: Q01DX009 (oral), vehicle: other): 107 % of control
- T/C (dose: 10.8 mg/kg/injection, schedule: Q04DX003 (ip), vehicle: lactic acid): 203 % of control
- T/C (dose: 12.5 mg/kg/injection, schedule: Q01DX009 (ip), vehicle: other): 167 % of control and 191 % of control and 209 % of control
- T/C (dose: 18.0 mg/kg/injection, schedule: Q01DX001 (ip), vehicle: other): 158 % of control
- T/C (dose: 18.0 mg/kg/injection, schedule: Q01DX001 (iv), vehicle: other): 100 % of control
- T/C (dose: 18.0 mg/kg/injection, schedule: Q01DX005 (ip), vehicle: other): 236 % of control
- T/C (dose: 18.0 mg/kg/injection, schedule: Q01DX005 (oral), vehicle: other): 108 % of control
- T/C (dose: 18.0 mg/kg/injection, schedule: Q01DX009 (oral), vehicle: other): 116 % of control
- T/C (dose: 25.0 mg/kg/injection, schedule: Q01DX001 (ip), vehicle: water): 100 % of control
- T/C (dose: 36.0 mg/kg/injection, schedule: Q01DX001 (ip), vehicle: other): 153 % of control
- T/C (dose: 36.0 mg/kg/injection, schedule: Q01DX001 (oral), vehicle: other): 103 % of control
- T/C (dose: 36.0 mg/kg/injection, schedule: Q01DX005 (oral), vehicle: other): 121 % of control
- T/C (dose: 72.0 mg/kg/injection, schedule: Q01DX001 (oral), vehicle: other): 119 % of control

Structure (SMILES): O=C(CC(=O)C(F)(F)F)c1csc2ccccc12
- T/C (dose: 12.5 mg/kg/injection, schedule: Q01DX009 (ip), vehicle: saline with Tween-80): 102 % of control
- T/C [7]: 97 % of control
- T/C [8]: 114 % of control

Structure (SMILES): CCCC1OC(=O)C(C)O1 (centres undefined)
- T/C [4]: 92 % of control
- T/C [1]: 89 % of control

Structure (SMILES): FC(F)(F)c1ccc(Cl)c(NC2=NCCCS2)c1
- T/C [4]: 96 % of control
- T/C [1]: 89 % of control

Structure (SMILES): COC(=O)/C(C)=C/C=C/C(OC)C(OC(N)=O)/C(C)=C/C(C)C(O)C(CC(C)CC1=C(OC)C(=O)C=C(N)C1=O)OC (centres undefined)
- T/C (dose: 12.5 mg/kg/injection, schedule: Q01DX005 (ip), vehicle: other): 103 % of control
- T/C (dose: 25.0 mg/kg/injection, schedule: Q01DX005 (ip), vehicle: other): 99 % of control
- T/C (dose: 50.0 mg/kg/injection, schedule: Q01DX005 (ip), vehicle: other): 108 % of control
- T/C (dose: 100.0 mg/kg/injection, schedule: Q01DX005 (ip), vehicle: other): 108 % of control
- T/C (dose: 200.0 mg/kg/injection, schedule: Q01DX005 (ip), vehicle: other): 86 % of control
